Values of other authors in patent US5763596A, “C-4' modified adenosine kinase inhibitors” (Metabasis Therapeutics, Inc., priority 1996, dated 1998).
Where two headings read alike, the source gives them in different places.

Tests used:
rat cardiomyocytes = details: adenosine deaminase inhibition alone; cited from earlier work
[1] = tested on: isolated guinea pig hearts; details: in the absence of ADA inhibition; cited from earlier work
rat brain slices = details: cited from earlier work
guinea pig brain slices = details: cited from earlier work
mice = details: cited from earlier work
isolated rat hearts = details: cited from earlier work
[2] = in vivo; cited from earlier work

| SMILES | adenosine uptake (rat brain slices) | adenosine uptake (guinea pig brain slices) | general flaccidity (mice) | other results |
| --- | --- | --- | --- | --- |
| OC[C@H]1O[C@@H](n2cnc3c2N=CNC[C@H]3O)C[C@@H]1O [2'-deoxycoformycin] |  |  |  | effect on adenosine release from the cells (rat cardiomyocytes): no effect on adenosine release |
| NC[C@H]1O[C@@H](n2cnc3c(N)ncnc32)[C@H](O)[C@@H]1O [5'-amino-5'-deoxyadenosine] |  |  |  | adenosine release effect [1]: not apparent |
| C[C@H]1O[C@@H](n2cc(I)c3c(N)ncnc32)[C@H](O)[C@@H]1O [5'-deoxy-5-iodotubercidin] | adenosine uptake was reportedly inhibited | adenosine uptake was reportedly inhibited | pronounced general flaccidity |  |
| Nc1ncnc2c1c(I)cn2[C@@H]1O[C@H](CO)[C@@H](O)[C@H]1O [5-iodotubercidin] | adenosine uptake was reportedly inhibited | adenosine uptake was reportedly inhibited | pronounced general flaccidity | increase in perfusate adenosine concentration (isolated rat hearts; hypoxic, anoxic or ischemic conditions): no increase in perfusate adenosine concentration; increase in perfusate adenosine concentration (isolated rat hearts; normoxic conditions): no increase in perfusate adenosine concentration; protection against ischemic cerebral injury [2]: apparently does not protect against ischemic cerebral injury |
